According to patent US20230011571A1, “SMALL MOLECULE FURIN INHIBITORS FOR TREATING INFECTIOUS DISEASES” (BP Asset V, Inc., priority 2019, published 2023):

Legend:
Format in all cases: cell-based
dengue virus (DENV) = test: microbe, parasite or virus in culture; conditions: Dengue virus, Vero, 120 h, read-out: Percent viral inhibition DENY
[1] = tested on: Chikungunya virus (CHIKV); test: microbe, parasite or virus in culture; conditions: Chikungunya virus, Vero, 48 h, read-out: Percent viral inhibition CHKV
Marburg virus (MARV) = test: organism not typed; conditions: Vero, 72 h, read-out: Percent viral inhibition MARV

Row | Structure (SMILES) | inhibition at 1 µM (dengue virus (DENV)) [%] | inhibition at 1 µM [1] [%] | inhibition at 1 µM (Marburg virus (MARV)) [%]
1 | CS(=O)(=O)CCCN1CCN(c2ccc(Oc3cc(CN4CCC(CC(=O)O)CC4)cc(-c4cc(Cl)cc(Cl)c4)n3)cn2)CC1 [Example 243, 2-(1-((2-(3,5-dichlorophenyl)-6-((6-(4-(3-(methylsulfonyl)propyl)piperazin-1-yl)pyridin-3-yl)oxy)pyridin-4-yl)methyl)piperidin-4-yl)acetic acid] | 37.9 | 14.6 | 46.8
2 | COCCN1CCN(c2ccc(Oc3cc(CN4CCC(CC(=O)O)CC4)cc(-c4cc(Cl)cc(Cl)c4)n3)cn2)CC1 [Example 244, 2-(1-((2-(3,5-dichlorophenyl)-6-((6-(4-(2-methoxyethyl)piperazin-1-yl)pyridin-3-yl)oxy)pyridin-4-yl)methyl)piperidin-4-yl)acetic acid] | 14 | 6.34 | 61.4
3 | COCCN1CCN(c2ncc(Oc3cc(CN4CCC(CNC(C)=O)CC4)cc(-c4cc(Cl)cc(Cl)c4)n3)cn2)CC1 [Example 245, N-((1-((2-(3,5-dichlorophenyl)-6-((2-(4-(2-methoxyethyl)piperazin-1-yl)pyrimidin-5-yl)oxy)pyridin-4-yl)methyl)piperidin-4-yl)methyl)acetamide] | 53.3 | 24.1 | 53.9
4 | NS(=O)(=O)CCCN1CCN(c2ncc(Oc3cc(CN4CCC(CC(=O)O)CC4)cc(-c4cc(Cl)cc(Cl)c4)n3)cn2)CC1 [Example 246, 2-(1-((2-(3,5-dichlorophenyl)-6-((2-(4-(3-sulfamoylpropyl)piperazin-1-yl)pyrimidin-5-yl)oxy)pyridin-4-yl)methyl)piperidin-4-yl)acetic acid] | 50.8 | 24.6 | 39.9
5 | COCCN1CCN(c2ncc(Oc3cc(CN4CCC(CC(=O)O)CC4)cc(-c4cc(Cl)cc(Cl)c4)n3)cn2)CC1 [Example 247, 2-(1-((2-(3,5-dichlorophenyl)-6-((2-(4-(2-methoxyethyl)piperazin-1-yl)pyrimidin-5-yl)oxy)pyridin-4-yl)methyl)piperidin-4-yl)acetic acid] | 50 | 31.1 | 49.7
6 | CNC(=O)OCC1CCN(Cc2cc(Oc3cnc(N4CCN(CCC(=O)O)CC4)nc3)nc(-c3cc(Cl)cc(Cl)c3)c2)CC1 [Example 248, 3-(4-(5-((6-(3,5-dichlorophenyl)-4-((4-(((methylcarbamoyl)oxy)methyl)piperidin-1-yl)methyl)pyridin-2-yl)oxy)pyrimidin-2-yl)piperazin-1-yl) propanoic acid] | 81.2 | 34.8 | 49.6
7 | CC(=O)NCC1CCN(Cc2cc(Oc3ccc(N4CCN(CCCC(=O)O)CC4)nc3)nc(-c3cc(Cl)cc(Cl)c3)c2)CC1 [Example 249, 4-(4-(5-((4-((4-(acetamidomethyl)piperidin-1-yl)methyl)-6-(3,5-dichlorophenyl)pyridin-2-yl)oxy)pyridin-2-yl)piperazin-1-yl)butanoic acid] | 48.6 | 32.5 | 51.4
8 | COCCN1CCN(c2ccc(Oc3cc(CN4CCC(CNC(C)=O)CC4)cc(-c4cc(Cl)cc(Cl)c4)n3)cn2)CC1 [Example 250, N-((1-((2-(3,5-dichlorophenyl)-6-((6-(4-(2-methoxyethyl)piperazin-1-yl)pyridin-3-yl)oxy)pyridin-4-yl)methyl)piperidin-4-yl)methyl)acetamide] | 55 | 25.9 | 0
9 | CC(=O)NCC1CCN(Cc2cc(Oc3ccc(N4CCN(CCCS(C)(=O)=O)CC4)nc3)nc(-c3cc(Cl)cc(Cl)c3)c2)CC1 [Example 251, N-((1-((2-(3,5-dichlorophenyl)-6-((6-(4-(3-(methylsulfonyl)propyl)piperazin-1-yl)pyridin-3-yl)oxy)pyridin-4-yl)methyl)piperidin-4-yl)methyl)acetamide] | 45.5 | 0 | 38.9
10 | NS(=O)(=O)CCCN1CCN(c2ccc(Oc3cc(CN4CCC(CC(=O)O)CC4)cc(-c4cc(Cl)cc(Cl)c4)n3)cn2)CC1 [Example 252, 2-(1-((2-(3,5-dichlorophenyl)-6-((6-(4-(3-sulfamoylpropyl)piperazin-1-yl)pyridin-3-yl)oxy)pyridin-4-yl)methyl)piperidin-4-yl)acetic acid] | 23.3 | 33.2 | 53.5
11 | CC(=O)NCC1CCN(Cc2cc(Oc3cnc(N4CCN(CCCS(N)(=O)=O)CC4)nc3)nc(-c3cc(Cl)cc(Cl)c3)c2)CC1 [Example 253, N-((1-((2-(3,5-dichlorophenyl)-6-((2-(4-(3-sulfamoylpropyl)piperazin-1-yl)pyrimidin-5-yl)oxy)pyridin-4-yl)methyl)piperidin-4-yl)methyl)acetamide] | 27.3 | 36.1 | 52.1
12 | CNC(=O)NCC1CCN(Cc2cc(Oc3ccc(N4CCN(CCOC)CC4)nc3)nc(-c3cc(Cl)cc(Cl)c3)c2)CC1 [Example 254, 1-((1-((2-(3,5-dichlorophenyl)-6-((6-(4-(2-methoxyethyl)piperazin-1-yl)pyridin-3-yl)oxy)pyridin-4-yl)methyl)piperidin-4-yl)methyl)-3-methylurea] | 57 | 5.74 | 40.4
13 | CNC(=O)NCC1CCN(Cc2cc(Oc3ccc(N4CCN(CCCS(C)(=O)=O)CC4)nc3)nc(-c3cc(Cl)cc(Cl)c3)c2)CC1 [Example 255, 1-((1-((2-(3,5-dichlorophenyl)-6-((6-(4-(3-(methylsulfonyl)propyl)piperazin-1-yl)pyridin-3-yl)oxy)pyridin-4-yl)methyl)piperidin-4-yl)methyl)-3-methylurea] | 10.3 | 16.1 | 40.1
14 | CNC(=O)NCC1CCN(Cc2cc(Oc3cnc(N4CCN(CCC(=O)O)CC4)nc3)nc(-c3cc(Cl)cc(Cl)c3)c2)CC1 [Example 256, 3-(4-(5-((6-(3,5-dichlorophenyl)-4-((4-((3-methylureido)methyl)piperidin-1-yl)methyl)pyridin-2-yl)oxy)pyrimidin-2-yl)piperazin-1-yl)propanoic acid] | 47.2 | 30.4 | 49.3
15 | CNC(=O)NCC1CCN(Cc2cc(Oc3cnc(N4CCN(CCCS(C)(=O)=O)CC4)nc3)nc(-c3cc(Cl)cc(Cl)c3)c2)CC1 [Example 257, 1-((1-((2-(3,5-dichlorophenyl)-6-((2-(4-(3-(methylsulfonyl)propyl)piperazin-1-yl)pyrimidin-5-yl)oxy)pyridin-4-yl)methyl)piperidin-4-yl)methyl)-3-methylurea] | 46.5 | 10.3 | 26.5
16 | CC(=O)NCC1CCN(Cc2cc(Oc3cnc(N4CCN(CCCS(C)(=O)=O)CC4)nc3)nc(-c3cc(Cl)cc(Cl)c3)c2)CC1 [Example 259, N-((1-((2-(3,5-dichlorophenyl)-6-((2-(4-(3-(methylsulfonyl)propyl)piperazin-1-yl)pyrimidin-5-yl)oxy)pyridin-4-yl)methyl)piperidin-4-yl)methyl)acetamide] | 47 | 15 | 67.2
17 | CNC(=O)NCC1CCN(Cc2cc(Oc3cnc(N4CCN(CCC(N)=O)CC4)nc3)nc(-c3cc(Cl)cc(Cl)c3)c2)CC1 [Example 261, 3-(4-(5-((6-(3,5-dichlorophenyl)-4-((4-((3-methylureido)methyl)piperidin-1-yl)methyl)pyridin-2-yl)oxy)pyrimidin-2-yl)piperazin-1-yl) propanamide] | 53.6 | 0.69 | 56.8
18 | CNC(=O)NCC1CCN(Cc2cc(Oc3cnc(N4CCN(CCOC)CC4)nc3)nc(-c3cc(Cl)cc(Cl)c3)c2)CC1 [Example 262, 1-((1-((2-(3,5-dichlorophenyl)-6-((2-(4-(2-methoxyethyl)piperazin-1-yl)pyrimidin-5-yl)oxy)pyridin-4-yl)methyl)piperidin-4-yl)methyl)-3-methylurea] | 10.3 | 19 | 39.3
19 | CC(=O)NCC1CCN(Cc2cc(Oc3cnc(N4CCN(CCC(=O)O)CC4)nc3)nc(-c3cc(Cl)cc(Cl)c3)c2)CC1 [Example 263, 3-(4-(5-((4-((4-(acetamidomethyl)piperidin-1-yl)methyl)-6-(3,5-dichlorophenyl)pyridin-2-yl)oxy)pyrimidin-2-yl)piperazin-1-yl)propanoic acid] | 39.7 | 28.9 | 48.5
20 | CC(=O)NCC1CCN(Cc2cc(Oc3cnc(N4CCN(CCC(=O)O)CC4)c(F)c3)nc(-c3cc(Cl)cc(Cl)c3)c2)CC1 [Example 266] | 48.7 | 22.6 | 56.3
21 | CCOC(=O)NCC1CCN(Cc2cc(Oc3cnc(N4CCN(CCC(=O)O)CC4)nc3)nc(-c3cc(Cl)cc(Cl)c3)c2)CC1 [Example 267, 3-(4-(5-((6-(3,5-dichlorophenyl)-4-((4-(((ethoxycarbonyl)amino)methyl)piperidin-1-yl)methyl)pyridin-2-yl)oxy)pyrimidin-2-yl)piperazin-1-yl) propanoic acid] | 37 | 34.6 | 65
22 | CC(CC1CCN(Cc2cc(Oc3cnc(N4CCNCC4)nc3)nc(-c3cc(Cl)cc(Cl)c3)c2)CC1)C(=O)O (stereo not drawn) [Example 269, 3-(1-((2-(3,5-dichlorophenyl)-6-((2-(piperazin-1-yl)pyrimidin-5-yl)oxy)pyridin-4-yl)methyl)piperidin-4-yl)-2-methylpropanoic acid] | 39.5 | 24.5 | 35
